Source: ChEMBL document CHEMBL3045974, “Global antifungal profile optimization of chlorophenyl derivatives against Botrytis cinerea and Colletotrichum gloeosporioides” (2009)

Key:
Format in all cases: functional
Botrytis cinerea [1] = test: Antifungal activity against Botryotinia fuckeliana 2100 assessed as inhibition of radial growth at 150 ug/mL at 25 degC measured after 5 days; details: Botrytis cinerea, 2100, 120 h; read-out: GI
[2] = system: Colletotrichum gloeosporioides; test: Antifungal activity against Colletotrichum gloeosporioides 20122-CECT assessed as inhibition of radial growth at 50 ug/mL at 25 degC measured after 5 days; details: 120 h, read-out: GI
Botrytis cinerea [3] = test: Antifungal activity against Botryotinia fuckeliana 2100 assessed as inhibition of radial growth at 50 ug/mL at 25 degC measured after 5 days; details: Botrytis cinerea, 2100, 120 h; read-out: GI
[4] = system: Colletotrichum gloeosporioides; test: Antifungal activity against Colletotrichum gloeosporioides 20122-CECT assessed as inhibition of radial growth at 150 ug/mL at 25 degC measured after 5 days; details: 120 h, read-out: GI
[5] = system: Colletotrichum gloeosporioides; test: Antifungal activity against Colletotrichum gloeosporioides 20122-CECT assessed as inhibition of radial growth at 100 ug/mL at 25 degC measured after 5 days; details: 120 h, read-out: GI
Botrytis cinerea [6] = test: Antifungal activity against Botryotinia fuckeliana 2100 assessed as inhibition of radial growth at 100 ug/mL at 25 degC measured after 5 days; details: Botrytis cinerea, 2100, 120 h; read-out: GI
Botrytis cinerea [7] = test: Antifungal activity against Botryotinia fuckeliana 2100 assessed as inhibition of radial growth at 150 ug/mL at 25 degC measured after 4 days; details: Botrytis cinerea, 2100, 96 h; read-out: GI
[8] = system: Colletotrichum gloeosporioides; test: Antifungal activity against Colletotrichum gloeosporioides 20122-CECT assessed as inhibition of radial growth at 100 ug/mL at 25 degC measured after 4 days; details: 96 h, read-out: GI
[9] = system: Colletotrichum gloeosporioides; test: Antifungal activity against Colletotrichum gloeosporioides 20122-CECT assessed as inhibition of radial growth at 150 ug/mL at 25 degC measured after 4 days; details: 96 h, read-out: GI
[10] = system: Colletotrichum gloeosporioides; test: Antifungal activity against Colletotrichum gloeosporioides 20122-CECT assessed as inhibition of radial growth at 50 ug/mL at 25 degC measured after 4 days; details: 96 h, read-out: GI

SMILES	inhibition of growth at 150 µg/mL (Botrytis cinerea [1]) [%]	inhibition of growth at 50 µg/mL [2] [%]	inhibition of growth at 50 µg/mL (Botrytis cinerea [3]) [%]	inhibition of growth at 150 µg/mL [4] [%]	inhibition of growth at 100 µg/mL [5] [%]	inhibition of growth at 100 µg/mL (Botrytis cinerea [6]) [%]	inhibition of growth at 150 µg/mL (Botrytis cinerea [7]) [%]	inhibition of growth at 100 µg/mL [8] [%]	inhibition of growth at 150 µg/mL [9] [%]	inhibition of growth at 50 µg/mL [10] [%]
CC[C@H](O)c1cccc(Cl)c1	82	32	64	49	37	71				
O[C@@H](c1ccc(Cl)cc1)C1CC1	100	25	77	52	40	100				
CCC(=O)c1ccc(Cl)cc1	91	28	28	36	29	51				
CCC(=O)c1cccc(Cl)c1	91	22	26	42	28	49				
OC(c1ccc(Cl)cc1)C1CC1 (racemic)	100	31	74	80	53	100				
CC[C@H](O)c1ccc(Cl)cc1	92	28	62	33	29	73				
O[C@H](c1ccccc1)[C@H](O)c1ccc(Cl)cc1	62	22	32	51	42	59				
CC[C@@H](OC(C)=O)c1cccc(Cl)c1	30	0	22	0	0	29				
O=C(c1ccc(Cl)cc1)C1CC1 [(4-CHLOROPHENYL)(CYCLOPROPYL)METHANONE]	100	21	88	86	63	99				
CC[C@@H](O)c1cccc(Cl)c1	86	34	72	65	60	80				
O[C@H](c1ccccc1)c1ccc(Cl)cc1	100	73	99	100	94	100				
Clc1ccc(/C=C/c2ccccc2)cc1		0		0	0		19			
O[C@@H](c1ccccc1)c1ccc(Cl)cc1	100	66	91	96	85	100				
O=C(Cc1ccccc1)c1ccc(Cl)cc1	38		31			33		13	17	9
CC[C@@H](O)c1ccc(Cl)cc1	98	28	74	59	39	82				
CCC(O)c1cccc(Cl)c1 (racemic)	83	31	67	62	60	77				
CC[C@@H](OC(C)=O)c1ccc(Cl)cc1	44	0	12	0	0	40				
Clc1ccc(C2OC2c2ccccc2)cc1 (stereo not drawn)	28	0		0	0					
CCC(O)c1ccc(Cl)cc1 (racemic)	95	28	61	51	41	77				
O[C@H](c1ccc(Cl)cc1)C1CC1	97		63			80		23	27	20
OC(c1ccccc1)c1ccc(Cl)cc1 (racemic)	100	63	95	94	87	100				
O[C@@H](c1ccccc1)[C@@H](O)c1ccc(Cl)cc1	68	27	33	62	52	63				
